Results published in patent publication US20190078052A1, “ENGINEERED ADHESIVE SUBSTRATES FOR HIGH-THROUGHPUT CELL ISOLATION AND SEPARATION” (ARIZONA BOARD OF REGENTS ON BEHALF OF ARIZONA STATE …, priority 2016, published 2019).
Entries after “also recorded” stand apart in the source; their conditions may differ.

Key:
[1] = system: T24 3D-DTMs; test: Cell cycle analysis of T24 3D-DTMs by propidium iodide flow cytometry; type: cell-based
Procedure: Following five days of incubation on AM3, 3DTMs of T24 cells with NIH3T3 murine fibroblast cells were harvested for cell cycle analysis. Four or five individual 3DTMs of T24 cells alone or UMUC3 cells alone were harvested on the 7th day after seeding on Amikagels, collected in an eppendorf tube. 50 μL of 5 mg/ml collagenase was added to 3DTMs prepared using fibroblast helper cells for 30 minutes at 37° C. in order to facilitate their disassembly by gentle pipetting. Single cell 3DTMs were disassembled using manual pipetting.
Disassembled 3DTM cells were then centrifuged at 200 r.c.f. in order to collect the cell pellet. The pellet was resuspended in a solution of 1% v/v 1× Triton-X, 5% (v/v) fetal bovine serum (FBS), 50 μg/mL propidium iodide, and 0.006-0.01 units/mL ribonuclease A. After incubation for 30 minutes on ice, cells were analyzed for their cell cycle profiles using flow cytometry; the propidium iodide (PI) signal was detected using an excitation at 535 nm and emission at 617 nm.
Voltages of the FL2-A, SSC and FSC channels were adjusted in order to obtain best representative peaks for alignment of 2n (diploidy−G0/G1) peak to 200 intensity units during flow cytometry. FL2A (FL2-Area) provides the information regarding the pulse area of the emitted fluorescence signal (total cell fluorescence) whereas SSC and FSC provide the information regarding the […] light from the sample. FSC is a measure of diffracted light from the sample proportional to cell surface area or size and SSC is proportional to cell granularity or internal complexity.

[2] = biological target: cdc42 (Homo sapiens, UniProt P60953); conditions: other cancer cell lines; cited from earlier work
cdc42, sequence (P60953 whole entry, species assumed): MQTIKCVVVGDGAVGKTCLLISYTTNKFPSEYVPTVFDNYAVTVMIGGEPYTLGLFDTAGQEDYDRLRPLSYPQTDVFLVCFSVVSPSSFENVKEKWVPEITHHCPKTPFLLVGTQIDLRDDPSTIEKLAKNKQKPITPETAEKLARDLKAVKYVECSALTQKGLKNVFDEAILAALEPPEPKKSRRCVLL

[3] = system: T24 3D-DTMs; test: Viability of T24 3D-DTMs after docetaxel treatment; type: cell-based; conditions: following treatment
[4] = system: phospho-AKT; conditions: cited from earlier work
[5] = system: T24 3D-DTMs; test: Transfer of dormant T24 3D-DTMs from AM3 to AM1 Amikagel: cell escape, filopodia, microcolony formation; type: cell-based; conditions: for formation of micrometastasis-like nodules / microcolonies: 100 μM pre-treated, 15 days after transfer to AM1
Procedure: 1 ml of amikagel AM1, AM2 and AM3 pre-gel solutions were filtered through a 0.20 μm filter and 40 μL of the filtrate was added to each well of a 96 well plate. The plates were sealed with paraffin tape (Parafilm, Menasha, Wis.) and incubated in an oven maintained at 40° C. for 7.5 hours. After gelation, the surfaces of Amikagels were washed with 150 μL of Nanopure® water for 12 hours, in order to remove traces of unreacted monomers.
All 3DTM (3D tumor microenvironments) experiments were set up by liquid overlay culture (2) of cells on top of Amikagel surface in a total volume of […] media/well; either 100,000 cancer cells alone (single culture) or 50,000 stromal cells followed by 50,000 cancer cells (co-culture) were incubated, unless indicated otherwise in specific cases. After 48 hours of incubation, 50% of the media in the wells was replaced with fresh media i.e. DMEM/RPMI+10% (v/v) FBS+1% (v/v) Pen-Strep at regular intervals of 48 hours. Care was taken to withdraw and add the media slowly so as to not perturb 3DTM formation. Fresh media was added every 48 hours following cell plating. For 3DTM generation on 24 well plates, 400 μL of pre-gel volume was used instead of 40 μl. Different co-culture 3DTM systems are represented as fibroblast/stromal cells-epithelial cells (e.g. NIH3T3-T24, WPMY-1-T24) to accurately indicate the sequence of their addition. In most cases, 3DTMs were formed 5-7 days following culture on Amikagels.
T24 3DTMs were first formed on AM3, and transferred to AM1s on the seventh day following initial cell seeding, in order to investigate the role of chemo-mechanical properties of Amikagels on 3DTM fate, and migration of metastatic cells out of the 3DTM spheroid. Upon transfer, cells from 3DTMs were monitored for cell spreading and motility on the gel for an additional 7 days. After 7 days, cell cycle analysis and N-cadherin analysis was carried out on the all 3DTMs. Long-term experiments were also carried out where 3D-DTMs were continuously monitored for 15 days after their transfer from AM3 gel to AM1 gel.

[6] = system: phospho-FAK; conditions: cited from earlier work

CC(=O)O[C@@]12CO[C@@H]1C[C@H](O)[C@@]1(C)C(=O)[C@H](O)C3=C(C)[C@@H](OC(=O)[C@H](O)[C@@H](NC(=O)OC(C)(C)C)c4ccccc4)C[C@@](O)([C@@H](OC(=O)c4ccccc4)[C@H]21)C3(C)C [Docetaxel, docetaxel]
cells in the G2/M phase, treated vs untreated 3D-DTM ([1]; 96 hours on AM3): No significant differences | cells in the sub-G0/G1 phase of the cell cycle, treated mother 3D-DTM ([1]; 96 hours on AM3): modest increase | cell cycle profile of treated T24 3D-DTMs ([1]; following treatment): dormant cell cycle profile | inhibition of cdc42 [2]: effectively inhibit | viability of treated T24 3D-DTMs [3]: remained viable | reduction of phospho-AKT expression compared to untreated T24 cells [4]: ~41% | cellular escape from the mother 3D-DTM ([5]; 12.5 μM-100 μM): significantly reduced | formation of micrometastasis-like nodules / microcolonies [5]: significantly reduced cell escape and microcolony formation | formation of micrometastasis-like nodules / microcolonies ([5]; listed as docetaxel): drastically reduced | cells escaping the mother spheroid ([5]; 100 μM pre-treatment on AM3, 48 hours after transfer to AM1): significantly lesser number of cells escaped | filopodia formation on cells shed on AM1 ([5]; after treatment of T24 3D-DTMs): did not show filopodia formation; also recorded: not observed | reduction of phospho-FAK expression compared to untreated T24 cells [6]: ~34%
